# Earlier results in PubChem BioAssay AID1259409 (Chemical Carcinogenesis Research Information System (CCRIS), 2018).
# Test system: rodent chemically induced tumor inhibition, incidence and multiplicity
# Experiment: CCRIS tumor inhibitor studies
structure (smiles),measurement,setting,value
S=C=NCCCCCCCCc1ccccc1,"tumour outcome (control, treated, inhibition, significance)","Carcinogen: 4-(METHYLNITROSAMINO)-1-(3-PYRIDYL)-1-BUTANONE, 64091-91-4, Dose [Inhibitor]: 0, 0.04 UMOL ONCE 2 HR PRIOR TO CARCINOGEN DOSE (STUDY DURATION: 16 WK), Route [Inhibitor]: GAVAGE, Species: MOUSE, Strain/Sex: STRAIN-A/FEMALE, Target Tissue: Type of Lesion: LUNG: ADENOMA, Dose [Carcinogen]: 10 UMOL IN 0.1 ML SALINE ONCE, Promoter: NONE USED","100%, 100%, 0%, not significant"
same,"tumour outcome (control, treated, inhibition, significance)","Carcinogen: 4-(METHYLNITROSAMINO)-1-(3-PYRIDYL)-1-BUTANONE, 64091-91-4, Dose [Inhibitor]: 0, 0.1 UMOL ONCE 2 HR PRIOR TO CARCINOGEN DOSE (STUDY DURATION: 16 WK), Route [Inhibitor]: GAVAGE, Species: MOUSE, Strain/Sex: STRAIN-A/FEMALE, Target Tissue: Type of Lesion: LUNG: ADENOMA, Dose [Carcinogen]: 10 UMOL IN 0.1 ML SALINE ONCE, Promoter: NONE USED","100%, 100%, 0%, not significant"
same,"tumour outcome (control, treated, inhibition, significance)","Carcinogen: 4-(METHYLNITROSAMINO)-1-(3-PYRIDYL)-1-BUTANONE, 64091-91-4, Dose [Inhibitor]: 0, 0.2 UMOL ONCE 2 HR PRIOR TO CARCINOGEN DOSE (STUDY DURATION: 16 WK), Route [Inhibitor]: GAVAGE, Species: MOUSE, Strain/Sex: STRAIN-A/FEMALE, Target Tissue: Type of Lesion: LUNG: ADENOMA, Dose [Carcinogen]: 10 UMOL IN 0.1 ML SALINE ONCE, Promoter: NONE USED","100%, 90%, 10%, p<0.05"
C=C1/C(=C\C=C2/CCC[C@]3(C)[C@@H]([C@H](C)CCCC(C)C)CC[C@@H]23)C[C@@H](O)C[C@@H]1O,"tumour outcome (control, treated, inhibition, significance)","Carcinogen: N-METHYL-N'-NITRO-N-NITROSOGUANIDINE [70-25-7], Dose [Inhibitor]: 0.04 UG IN MEDIUM CHAIN TRIGLYCERIDE 3X/WK FOR 24 WK BEGINNING IMMEDIATELY POST LAST CARCINOGEN DOSE (STUDY DURATION: 48, Route [Inhibitor]: INTRAGASTRIC, Species: RAT, Strain/Sex: WISTAR WKY/STD/MALE, Target Tissue: Type of Lesion: STOMACH AND SMALL INTESTINE: TUMOR, Dose [Carcinogen]: 0.01% IN DRINKING WATER FOR 24 WK (STUDY DURATION: 48 WK), Promoter: NONE","16/30 (53%), 8/30 (27%), 49%, p<0.05"
same,"tumour outcome (control, treated, inhibition, significance)","Carcinogen: N-METHYL-N'-NITRO-N-NITROSOGUANIDINE, 70-25-7, Dose [Inhibitor]: 0, 0.04 UG 3/WK FOR 24 WK BEGINNING POST CARCINOGEN TREATMENT (STUDY DURATION: 48 WK), Route [Inhibitor]: GAVAGE, Species: RAT, Strain/Sex: WISTAR/MALE, Target Tissue: Type of Lesion: GASTROINTESTINAL TRACT: TUMOR, Dose [Carcinogen]: 0.01% IN DRINKING WATER FOR 24 WK, Promoter: NONE USED","16/30 (53%), 8/30 (27%), 49%, p<0.05"
same,"tumour outcome (control, treated, inhibition, significance)","Carcinogen: N-METHYL-N-NITROSOUREA, 684-93-5, Dose [Inhibitor]: 0, 0.04 UG IN 0.2 ML OF MEDIUM CHAIN TRIGLYCERIDE 3/WK FOR 40 WK (STUDY DURATION: 46 WK), Route [Inhibitor]: INTRAGASTRIC, Species: RAT, Strain/Sex: F344/FEMALE, Target Tissue: Type of Lesion: COLON: TUMOR, Dose [Carcinogen]: 1 MG IN 0.5 ML DISTILLED WATER 1/WK FOR 40 WK, Promoter: NONE USED","21/24 (88%), 12/25 (48%), 45%, p<0.01"
same,"tumour outcome (control, treated, inhibition, significance)","Carcinogen: N-METHYL-N-NITROSOUREA, 684-93-5, Dose [Inhibitor]: 0.04 UG IN 0.2 ML OF MEDIUM CHAIN TRIGLYCERIDE FOLLOWING EACH PROMOTER DOSE 3/WK FOR 48 WK (STUDY DURATION: 50 WK), Route [Inhibitor]: GAVAGE, Species: RAT, Strain/Sex: F344/FEMALE, Target Tissue: Type of Lesion: COLON: ADENOMA OR ADENOCARCINOMA OR LEIOMYOSARCOMA, Dose [Carcinogen]: 2.5 MG IN 0.5 ML DISTILLED WATER TWICE IN 1 WK, Promoter: LITHOCHOLIC ACID, 434-13-9","15/32 (47%), 6/30 (20%), 57%, p<0.05"
C/C=C(/C)C(=O)OC1c2c(ccc3ccc(=O)oc23)OC(C)(C)C1OC(=O)/C(C)=C\C (stereo unspecified),"tumour outcome (control, treated, inhibition, significance)","Carcinogen: 7,12-DIMETHYLBENZ[A]ANTHRACENE, 57-97-6, Dose [Inhibitor]: 10 UMOL APPLIED 40 MINUTES PRIOR TO PROMOTER DOSE (STUDY DURATION: 20 WK), Route [Inhibitor]: DERMAL, Species: MOUSE, Strain/Sex: ICR/FEMALE, Target Tissue: Type of Lesion: SKIN: PAPILLOMA, Dose [Carcinogen]: 100 UG ONCE","100%, 0%, 100%, not calculated"
CC(C)NCC(O)c1ccc(O)c(O)c1 (stereo unspecified),"tumour outcome (control, treated, inhibition, significance)","Carcinogen: 1,2-DIMETHYLHYDRAZINE DIHYDROCHLORIDE, 306-37-6, Dose [Inhibitor]: 0, 150 MG/KG BW 1/WK FOR 8 WK BEGINNING 20 D POST CARCINOGEN TREATMENT (STUDY DURATION: 26.5 WK), Route [Inhibitor]: INTRAPERITONEAL, Species: MOUSE, Strain/Sex: CF-1/FEMALE, Target Tissue: Type of Lesion: COLON: TUMOR, Dose [Carcinogen]: 20 MG/KG BW 1/WK FOR 8 WK, Promoter: NONE USED","10/12 (83%), 10/12 (83%), 0%, not significant"
same,"tumour outcome (control, treated, inhibition, significance)","Carcinogen: 1,2-DIMETHYLHYDRAZINE DIHYDROCHLORIDE, 306-37-6, Dose [Inhibitor]: 0, 150 MG/KG BW 1/WK FOR 12 WK ADMINISTERED 39 HR POST EACH CARCINOGEN DOSE (STUDY DURATION: 28 WK), Route [Inhibitor]: INTRAPERITONEAL, Species: MOUSE, Strain/Sex: CF-1/FEMALE, Target Tissue: Type of Lesion: COLON: TUMOR, Dose [Carcinogen]: 20 MG/KG BW 1/WK FOR 12 WK, Promoter: NONE USED","12/12 (100%), 9/9 (100%), 0%, not significant"
same,"tumour outcome (control, treated, inhibition, significance)","Carcinogen: 1,2-DIMETHYLHYDRAZINE DIHYDROCHLORIDE, 306-37-6, Dose [Inhibitor]: 0, 150 MG/KG BW 2/WK FOR 6 WK ADMINISTERED 15 AND 39 HR AFTER EACH CARCINOGEN DOSE (STUDY DURATION: 30 WK), Route [Inhibitor]: INTRAPERITONEAL, Species: MOUSE, Strain/Sex: CF-1/FEMALE, Target Tissue: Type of Lesion: COLON: TUMOR, Dose [Carcinogen]: 20 MG/KG BW 1/WK FOR 6 WK, Promoter: NONE USED","4/9 (44%), 0/8 (0%), 100%, not calculated"
same,"tumour outcome (control, treated, inhibition, significance)","Carcinogen: 1,2-DIMETHYLHYDRAZINE DIHYDROCHLORIDE, 306-37-6, Dose [Inhibitor]: 0, 150 MG/KG BW 2/WK FOR 12 WK ADMINISTERED 15 AND 39 HR POST EACH CARCINOGEN DOSE (STUDY DURATION: 28 WK), Route [Inhibitor]: INTRAPERITONEAL, Species: MOUSE, Strain/Sex: CF-1/FEMALE, Target Tissue: Type of Lesion: COLON: TUMOR, Dose [Carcinogen]: 20 MG/KB BW 1/WK FOR 12 WK, Promoter: NONE USED","12/12 (100%), 8/8 (100%), 0%, not significant"
same,"tumour outcome (control, treated, inhibition, significance)","Carcinogen: AZOXYMETHANE, 25843-45-2, Dose [Inhibitor]: 0.5 MG/KG BW 1/2D IN OLIVE OIL BEGINNING 3 WK PRIOR TO FIRST CARCINOGEN DOSE (STUDY DURATION: 40 WK), Route [Inhibitor]: SUBCUTANEOUS, Species: RAT, Strain/Sex: WISTAR/MALE, Target Tissue: Type of Lesion: COLON: TUMOR, Dose [Carcinogen]: 7.4 MG/KG BW IN 0.9% SALINE SOLUTION 1/WK FOR 10 WK, Promoter: NONE USED","18/20 (90%), 10/18 (56%), 38%, p<0.05"
same,"tumour outcome (control, treated, inhibition, significance)","Carcinogen: N-METHYL-N'-NITRO-N-NITROSOGUANIDINE, 70-25-7, Dose [Inhibitor]: 0, 0.1 MG/KG IN OLIVE OIL SUSPENSION 1/D BEGINNING 1 WK POST LAST CARCINOGEN DOSE AND CONTINUING FOR DURATION OF STUDY (, Species: RAT, Strain/Sex: WISTAR/MALE, Target Tissue: Type of Lesion: GLANDULAR STOMACH: ADENOCARCINOMA, Dose [Carcinogen]: 50 UG/ML IN DRINKING WATER FOR 25 WK, Promoter: NONE USED","15/18 (83%), 9/20 (45%), 46%, p<0.05"
C=CC1=C(C)C2=NC1=CC1=NC(=CC3=C(C)C4=C(O)[C@H](C(=O)OC)C(=C5NC(=C2)[C@@H](C)[C@@H]5CCC(=O)O)C4=N3)C(CC)=C1C,"tumour outcome (control, treated, inhibition, significance)","Carcinogen: 7,12-DIMETHYLBENZ[A]ANTHRACENE, 57-97-6, Dose [Inhibitor]: 0, 16 NMOL IN 0.1 ML ACETONE 2/WK FOR 20 WK APPLIED 40 MIN PRIOR TO EACH PROMOTER DOSE (STUDY DURATION: 21 WK), Route [Inhibitor]: DERMAL, Species: MOUSE, Strain/Sex: ICR/FEMALE, Target Tissue: Type of Lesion: SKIN: TUMOR, Dose [Carcinogen]: 0.19 UMOL IN 0.1 ML ACETONE ONCE, Promoter: 12-O-TETRADECANOYLPHORBOL-13-ACETATE, 16561-29-8","100%, 72%, 28%, p<0.005"
same,"tumour outcome (control, treated, inhibition, significance)","Carcinogen: 7,12-DIMETHYLBENZ[A]ANTHRACENE, 57-97-6, Dose [Inhibitor]: 0, 160 NMOL IN 0.1 ML ACETONE 2/WK FOR 20 WK APPLIED 40 MIN PRIOR TO EACH PROMOTER DOSE (STUDY DURATION: 21 WK), Route [Inhibitor]: DERMAL, Species: MOUSE, Strain/Sex: ICR/FEMALE, Target Tissue: Type of Lesion: SKIN: TUMOR, Dose [Carcinogen]: 0.19 UMOL IN 0.1 ML ACETONE ONCE, Promoter: 12-O-TETRADECANOYLPHORBOL-13-ACETATE, 16561-29-8","100%, 69%, 31%, p<0.005"
